From patent US9074180B2, “Culture medium containing kinase inhibitors, and uses thereof” (THE UNIVERSITY COURT OF THE UNIVERSITY OF EDINBURGH, priority 2006, dated 2015)

Columns and labels:
Mouse ES cells = test: Mouse ES cell self-renewal culture; type: cell-based; conditions: for toxicity to ES cells: GSK-3 inhibitor alone in ES cell culture; for ES cell propagation: single inhibitor in N2B27 medium containing LIF without BMP4; for Oct4/Sox1 marker status: single inhibitor in N2B27 medium without added LIF
Procedure: Mouse ES cells were cultured in the presence of an inhibitor of the FGF receptor and a MEK inhibitor. […] Undifferentiated cultures can be continuously passaged in these conditions while retaining expression of the pluripotency markers Oct4, Nanog, and Rex1.
However, these cells invariably differentiate and/or die after passaging. To reduce potential toxic side effects we used 2.5 fold lower doses and combined the two inhibitors together. […] Viability is lower and population doubling time slower in this two inhibitor (2i) condition than in the presence of ILIF, but differentiation is effectively restrained.
We reasoned that reduced growth of ES cells in 2i media could be due to increased activity of glycogen synthase kinase 3 (GSK-3) consequent to release of inhibitory phosphorylation by Rsk downstream of pErk. […] In serum-free N2B27 medium the differentiation response is reduced and some colonies appear morphologically Undifferentiated for several days.
However, when CHIR99021 is combined with 2i the differentiation response is lost entirely. Furthermore, CHIR99021 modulated the response to 2i such that ES cells grew as compact three dimensional colonies rather than flattened monolayers typically seen in LIF plus serum/BMP or in 2i. Differentiation was negligible in the three inhibitors (3i) and ES cells propagated rapidly. Most importantly undifferentiated colonies grew up at high efficiency after passaging (data not shown).

Human ES cells = test: Human ES cell culture; type: cell-based; conditions: media supplemented with CHIR99021 and PD184352; data not shown
[1] = test system: cyclin-dependent kinases (CDKs); conditions: at concentrations that completely block GSK-3 activity; cited from earlier work
FGF receptor = test: Substitution of FGFR antagonist in culture medium; type: cell-based; conditions: substituting for SU5402
Procedure: Suitable concentrations of SU5402 are in the micromolar range, such as from 0.1-20 μM. Some embodiments use concentrations in the range 0.5-10 μM, especially in the range 1-5 μM.

[2] = test system: RH ES cells fused to Neural Stem cells (NS TGFP); test: ES-NS cell fusion, pluripotent hybrid colony formation (reprogramming); type: cell-based
Procedure: (FIGS. 1A-1C)—FACS analysis for red and green fluorescence of RH×NS TGFP fusions. (FIG. 1A) Fusion mixture 24 hours after PEG treatment; (FIG. 1B) Purity check of FACS sorted hybrids gated in A. (FIG. 1C) Hybrids sorted in A were plated and the formed colonies were scored as percentage of colonies per plated hybrid. These scores take into account the purity of the FACS sorted cells. (FIG. 1D) Summary of data. (FIG. 1E) Examples of hybrid colony morphology.
RH ES cells, which express constitutively the dsRed fluorescent protein and hygromycin resistance, were fused to foetal derived Neural Stem cells (NS TGFP) that express the fusion protein TauGFP linked via an IRES to puromycin resistance. […] In the control no PD184352 was added. Treated and untreated primary hybrids were sorted 24 hours after fusion and then plated (FIG. 1A-C). Hygromycin and puromycin selection were added to the ES medium 3 days later. […] This effect is likely to be mediated by the increased levels of Nanog in treated RH cells. Accordingly, if Nanog is endogenously expressed then the MEK inhibitor can be used to upregulate Nanog and achieve associated effects, such as increased reprogramming.

Nanog = Nanog levels and Nanog dependence of self-renewal in ES cells; type: cell-based; conditions: data not shown
From the text: In fact, these cells differentiated.

## Cn1cc(C2=C(c3ccc(Cl)cc3Cl)C(=O)NC2=O)c2ccccc21 [SB216763]
Mouse ES cells
  toxicity to ES cells: somewhat toxic

## LIF: Leukaemia Inhibitory Factor, gp130 receptor binding cytokine
Mouse ES cells; media supplemented with CHIR99021 and PD184352, data not shown
  propagation of cells on addition of LIF: further improved propagation
Human ES cells
  propagation of cells on addition of LIF: further improved propagation

## Cc1c[nH]c(-c2cnc(NCCNc3ccc(C#N)cn3)nc2-c2ccc(Cl)cc2Cl)n1 [CHIR99021]
Mouse ES cells; 3 μM, in the presence of serum, even with LIF
  differentiation response: promotes differentiation
Mouse ES cells; serum-free N2B27 medium, GSK-3 inhibitor alone
  persistence of undifferentiated cells after passaging: Undifferentiated cells do not persist after passaging
[1]
  cross reaction with CDKs: does not cross react

## CCN(CC)CCCCNc1ncc2cc(-c3cc(OC)cc(OC)c3)c(NC(=O)NC(C)(C)C)nc2n1 [PD173074]
FGF receptor
  fully effective concentration relative to SU5402 (fold lower): about 100 fold

## O=C1NC(=O)C(c2ccccc2[N+](=O)[O-])=C1Nc1ccc(O)c(Cl)c1 [SB415286]
Mouse ES cells
  toxicity to ES cells: somewhat toxic

## Cc1c[nH]c(/C=C2\C(=O)Nc3ccccc32)c1CCC(=O)O [SU5402]
Mouse ES cells
  ES cell propagation: sufficient for robust ES cell propagation
  Oct4/Sox1 marker status: remain Oct4 positive and Sox1 negative for several days

## O=C(NOCC1CC1)c1ccc(F)c(F)c1Nc1ccc(I)cc1Cl [PD184352]
[2]; PD184352 treated RH cells (3 μM)
  percentage of hybrid colonies formed per plated hybrid: 2.25%
[2]; RH cells treated 3 days prior and after fusion with 3 μM PD184352, vs untreated control
  enhancement of ES-NS hybrid colony formation: 45 fold
Nanog; Nanog −/− ES cells
  ES cell self-renewal in Nanog −/− ES cells: failed to show enhancing of ES cell self-renewal
Nanog
  levels of Nanog in ES cells: increases the levels of Nanog
Mouse ES cells
  ES cell propagation: sufficient for robust ES cell propagation
  Oct4/Sox1 marker status: remain Oct4 positive and Sox1 negative for several days
